Data: PMC11432330, “Novel Drug-like HsrA Inhibitors Exhibit Potent Narrow-Spectrum Antimicrobial Activities against Helicobacter pylori” (International Journal of Molecular Sciences, 2024)

System: H. pylori 26695
Assay: In vivo inhibition of HsrA: RNA-Seq transcriptomic analysis of exposed cells
Type: cell-based, Helicobacter pylori
Settings: for log2 Fold Change: exposed to lethal concentrations vs control
Description: Bacterial growth from three blood agar plates of H. pylori ATCC 700392 (aka 26695) incubated for 48 h at 37 °C under microaerobic conditions was aseptically resuspended in BHI + FBS and adjusted to 10^7 CFU/mL. BHI broth cultures were incubated microaerobically at 37 °C for 24 h. […] At this time, bacterial growth was stopped by adding 1.5 mL ice-cold RNA stop solution (95% absolute ethanol, 5% acid-buffered phenol) and subsequently incubated on ice. Control samples were exposed to the same amount of DMSO instead of the inhibitor. Helicobacter cells from all samples were harvested by centrifugation (4000 rpm at 4 °C for 10 min), then the pellets were quickly frozen by immersion in liquid nitrogen and stored at −80 °C.
RNA-Seq analysis was performed by GENEWIZ (Azenta Life Sciences, Leipzig, Germany). Frozen cell pellets from two biological replicates of each treatment condition were properly submitted to GENEWIZ in dry ice. RNA-Seq libraries were prepared according to standard protocols via rRNA depletion, RNA fragmentation and random priming, reverse transcription, 5’-phosphorylation and dA-tailing of cDNAs, adaptor ligation, and PCR enrichment. Once the quality of each library was confirmed, they were sequenced on an Illumina NovaSeq 6000 (Illumina, San Diego, CA, USA) with 150-bp paired-ends. Raw sequence reads were filtered to remove possible adapter sequences and nucleotides with poor quality using Trimmomatic v.0.36 [105]. The trimmed reads were subsequently mapped to the H. pylori strain 26695 reference genome NC_000915.1 available on NCBI, by using the Bowtie2 aligner v.2.2.6 [106]. Unique gene hit counts were calculated by using featureCounts from the Subread package v.1.5.2. Only unique reads that fell within the gene regions were counted. Using DESeq2 [108], a comparison of the gene expression between the control and treated groups of samples was performed. The Wald test was used to generate p-values and log2 fold changes. Genes with an adjusted p-value < 0.05 and absolute log2 fold change >1 were considered as differentially expressed genes (DEGs) for each comparison. The RNA-Seq data generated in this study have been deposited in ArrayExpress with the accession number E-MTAB-14255.

[1] = RNA-Seq, 4 × MIC, vs control samples

Structure (SMILES): NC(=NOC(=O)Nc1ccc(Cl)cc1)c1csc([N+](=O)[O-])c1 [Ligand V, N′-{[(4-chloroanilino)carbonyl]}oxy-5-nitrothiophene-3-carboximidamide]
- Exposure until log10 CFU/mL diminished in one unit (4 × MIC, ~3 × 10^7 CFU/mL H. pylori 26695): ~ 2 h
- Depletion in gene expression of 50S ribosomal proteins L21, L35, L27 and 30S ribosomal protein S10 (RNA-Seq, 4 × MIC): > 5.8 fold
- Downregulation of ferrous iron transporter FeoB (RNA-Seq, 4 × MIC): ~ 2.5 fold
- ORFs of the H. pylori genome with influenced expression (RNA-Seq, 4 × MIC): 23%
- Upregulation of ferritin (pfr, hp0653) (RNA-Seq, 4 × MIC): 4.7 fold
- Upregulation of ferritin-like iron-binding protein NapA (RNA-Seq, 4 × MIC): 2.3 fold
- Genes downregulated [1]: 155
- Genes upregulated [1]: 212
- ORF with significantly changed transcript levels (RNA-Seq, 4 × MIC, absolute log2 fold change > 1, p-value < 0.05): 367
- log2 Fold Change HP0013 (gene HP0013, lethal concentrations of V vs control): 0.182
- log2 Fold Change HP0018 (gene HP0018, lethal concentrations of V vs control): 0.356
- log2 Fold Change (gene HP0022): -0.512
- log2 Fold Change HP0028 (gene HP0028, lethal concentrations of V vs control): 0.408
- log2 Fold Change (gene HP0029): -0.496
- log2 Fold Change HP0030 (gene HP0030, lethal concentrations of V vs control): 0.184
- log2 Fold Change HP0033 (gene HP0033, lethal concentrations of V vs control): 0.361
- log2 Fold Change (gene HP0043): -0.566
- log2 Fold Change (gene HP0054): -0.519
- log2 Fold Change HP0063 (gene HP0063, lethal concentrations of V vs control): 0.326
- log2 Fold Change HP0066 (gene HP0066, lethal concentrations of V vs control): 0.182
- log2 Fold Change HP0081 (gene HP0081, lethal concentrations of V vs control): 0.173
- log2 Fold Change HP0082 (gene HP0082, lethal concentrations of V vs control): 0.224
- log2 Fold Change HP0089 (gene HP0089, lethal concentrations of V vs control): 0.244
- log2 Fold Change (gene HP0099): -0.573
- log2 Fold Change HP0102 (gene HP0102, lethal concentrations of V vs control): 0.190
- log2 Fold Change HP0104 (gene HP0104, lethal concentrations of V vs control): 0.451
- log2 Fold Change HP0106 (gene HP0106, lethal concentrations of V vs control): 0.286
- log2 Fold Change HP0121 (gene HP0121, lethal concentrations of V vs control): 0.408
- log2 Fold Change HP0138 (gene HP0138, lethal concentrations of V vs control): 0.430
- log2 Fold Change (gene HP0141): -0.503
- log2 Fold Change (gene HP0142): -0.490
- log2 Fold Change HP0144 (gene HP0144, lethal concentrations of V vs control): 0.204
- log2 Fold Change HP0145 (gene HP0145, lethal concentrations of V vs control): 0.164
- log2 Fold Change (gene HP0149): -0.471
- log2 Fold Change (gene HP0151): 1.340
- log2 Fold Change HP0152 (gene HP0152, lethal concentrations of V vs control): 0.161
- log2 Fold Change HP0155 (gene HP0155, lethal concentrations of V vs control): 0.192
- log2 Fold Change (gene HP0159): -0.532
- log2 Fold Change HP0166 (gene HP0166, lethal concentrations of V vs control): 0.208
- log2 Fold Change HP0170 (gene HP0170, lethal concentrations of V vs control): 0.476
- log2 Fold Change HP0186 (gene HP0186, lethal concentrations of V vs control): 0.474
- log2 Fold Change HP0195 (gene HP0195, lethal concentrations of V vs control): 0.229
- log2 Fold Change (gene HP0202): -0.569
- log2 Fold Change HP0209 (gene HP0209, lethal concentrations of V vs control): 0.364
- log2 Fold Change HP0214 (gene HP0214, lethal concentrations of V vs control): 0.273
- log2 Fold Change HP0215 (gene HP0215, lethal concentrations of V vs control): 0.474
- log2 Fold Change HP0221 (gene HP0221, lethal concentrations of V vs control): 0.231
- log2 Fold Change (gene HP0222): -0.475
- log2 Fold Change HP0224 (gene HP0224, lethal concentrations of V vs control): 0.431
- log2 Fold Change HP0230 (gene HP0230, lethal concentrations of V vs control): 0.223
- log2 Fold Change HP0234 (gene HP0234, lethal concentrations of V vs control): 0.200
- log2 Fold Change (gene HP0257): -0.600
- log2 Fold Change HP0263 (gene HP0263, lethal concentrations of V vs control): 0.370
- log2 Fold Change HP0267 (gene HP0267, lethal concentrations of V vs control): 0.453
- log2 Fold Change (gene HP0268): -0.504
- log2 Fold Change (gene HP0285): -0.482
- log2 Fold Change HP0290 (gene HP0290, lethal concentrations of V vs control): 0.227
- log2 Fold Change (gene HP0293): -0.482
- log2 Fold Change HP0315 (gene HP0315, lethal concentrations of V vs control): 0.371
- log2 Fold Change HP0316 (gene HP0316, lethal concentrations of V vs control): 0.320
- log2 Fold Change HP0322 (gene HP0322, lethal concentrations of V vs control): 0.305
- log2 Fold Change HP0329 (gene HP0329, lethal concentrations of V vs control): 0.261
- log2 Fold Change HP0338 (gene HP0338, lethal concentrations of V vs control): 0.386
- log2 Fold Change HP0339 (gene HP0339, lethal concentrations of V vs control): 0.459
- log2 Fold Change HP0340 (gene HP0340, lethal concentrations of V vs control): 0.379
- log2 Fold Change HP0348 (gene HP0348, lethal concentrations of V vs control): 0.281
- log2 Fold Change HP0360 (gene HP0360, lethal concentrations of V vs control): 0.234
- log2 Fold Change HP0385 (gene HP0385, lethal concentrations of V vs control): 0.352
- log2 Fold Change HP0391 (gene HP0391, lethal concentrations of V vs control): 0.386
- log2 Fold Change HP0393 (gene HP0393, lethal concentrations of V vs control): 0.172
- log2 Fold Change (gene HP0396): -0.496
- log2 Fold Change HP0405 (gene HP0405, lethal concentrations of V vs control): 0.308
- log2 Fold Change HP0408 (gene HP0408, lethal concentrations of V vs control): 0.201
- log2 Fold Change HP0416 (gene HP0416, lethal concentrations of V vs control): 0.330
- log2 Fold Change (gene HP0418): -0.527
- log2 Fold Change HP0420 (gene HP0420, lethal concentrations of V vs control): 0.289
- log2 Fold Change HP0437 (gene HP0437, lethal concentrations of V vs control): 0.205
- log2 Fold Change HP0440 (gene HP0440, lethal concentrations of V vs control): 0.156
- log2 Fold Change HP0441 (gene HP0441, lethal concentrations of V vs control): 0.254
- log2 Fold Change HP0447 (gene HP0447, lethal concentrations of V vs control): 0.436
